{"source": "patent US6977262B2", "about": "“Dihydropyrazolopyridine compounds and pharmaceutical use thereof” (Mitsubishi Pharma Corporation, priority 2001, dated 2005)", "data": [{"units": {"melting point": "°C"}, "values": [{"molecule": "CCCC1=C([N+](=O)[O-])C(c2ccccc2Cl)c2c[nH]nc2N1", "note": "(stereo not drawn) [Example 93, 4-(2-Chlorophenyl)-4,7-dihydro-5-nitro-6-propyl-2H-pyrazolo[3,4-b]pyridine]", "melting point": 228}, {"molecule": "CCCC1=C(C#N)C(c2ccccc2Cl)c2c[nH]nc2N1", "note": "(stereo not drawn) [Example 94, 4-(2-Chlorophenyl)-5-cyano-4,7-dihydro-6-propyl-2H-pyrazolo[3,4-b]pyridine]", "melting point": 248}, {"molecule": "COc1ccc(C2=C(C#N)C(c3ccccc3Cl)c3c[nH]nc3N2)cc1", "note": "(stereo not drawn) [Example 95, 4-(2-Chlorophenyl)-5-cyano-4,7-dihydro-6-(4-methoxyphenyl)-2H-pyrazolo[3,4-b]pyridine]", "melting point": 124}, {"molecule": "O=C1OCC2=C1C(c1ccccc1Cl)c1c[nH]nc1N2", "note": "(stereo not drawn) [Example 96, 4-(2-Chlorophenyl)-2,4,7,8-tetrahydrofurano[3,4-b]pyrazolo[4,3-e]pyridin-5-one]", "melting point": "> 270"}, {"molecule": "CCCC1=C(C(=O)OCC)C(c2ccccc2O)c2c[nH]nc2N1", "note": "(stereo not drawn) [Example 98, Ethyl 4,7-dihydro-4-(2-hydroxyphenyl)-6-propyl-2H-pyrazolo[3,4-b]pyridine-5-carboxylate]", "melting point": 177}, {"molecule": "CCCC1=C(C(=O)OCC)C(c2ccccc2N)c2c[nH]nc2N1", "note": "(stereo not drawn) [Example 99, Ethyl 4-(2-aminophenyl)-4,7-dihydro-6-propyl-2H-pyrazolo[3,4-b]pyridine-5-carboxylate]", "melting point": 179}, {"molecule": "CCCC1=C(C(=O)OCC)C(c2ccccc2CC)c2cn[nH]c2N1", "note": "(stereo not drawn) [Example 100, Ethyl 4-(2-ethylphenyl)-4,7-dihydro-6-propyl-1H-pyrazolo[3,4-b]pyridine-5-carboxylate]", "melting point": 186}, {"molecule": "CCCC1=C(C(=O)OCC)C(c2ccccc2CCC)c2cn[nH]c2N1", "note": "(stereo not drawn) [Example 101, Ethyl 4,7-dihydro-6-propyl-4-(2-propylphenyl)-1H-pyrazolo[3,4-b]pyridine-5-carboxylate]", "melting point": 197}, {"molecule": "CCCCc1ccccc1C1C(C(=O)OCC)=C(CCC)Nc2[nH]ncc21", "note": "(stereo not drawn) [Example 102, Ethyl 4-(2-butylphenyl)-4,7-dihydro-6-propyl-1H-pyrazolo[3,4-b]pyridine-5-carboxylate]", "melting point": 175}, {"molecule": "CCCC1=C(C(=O)OCC)C(c2cccc3c2CCC3)c2c[nH]nc2N1", "note": "(stereo not drawn) [Example 103, Ethyl 4,7-dihydro-4-(indan-4-yl)-6-propyl-2H-pyrazolo[3,4-b]pyridine-5-carboxylate]", "melting point": "181 to 183"}, {"molecule": "CCCC1=C(C(=O)OCC)C(c2cccc3ccsc23)c2c[nH]nc2N1", "note": "(stereo not drawn) [Example 106, Ethyl 4-(benzo[b]thiophen-7-yl)-4,7-dihydro-6-propyl-2H-pyrazolo[3,4-b]pyridine-5-carboxylate]", "melting point": 166}, {"molecule": "CCCC1=C(C(=O)OCC)C(C)(c2ccccc2)c2c[nH]nc2N1", "note": "(stereo not drawn) [Example 108, Ethyl 4,7-dihydro-4-methyl-4-phenyl-6-propyl-2H-pyrazolo[3,4-b]pyridine-5-carboxylate]", "melting point": 207}, {"molecule": "CCCC1=C(C(=O)OCC)C(c2cccc(Cl)c2C)c2c[nH]nc2N1", "note": "(stereo not drawn) [Example 111, Ethyl 4-(3-chloro-2-methylphenyl)-4,7-dihydro-6-propyl-2H-pyrazolo[3,4-b]pyridine-5-carboxylate]", "melting point": 185}, {"molecule": "CCCC1=C(C(=O)OCC)C(c2cccc3nsnc23)c2c[nH]nc2N1", "note": "(stereo not drawn) [Example 112, Ethyl 4-(2,1,3-benzothiadiazol-4-yl)-4,7-dihydro-6-propyl-2H-pyrazolo[3,4-b]pyridine-5-carboxylate]", "melting point": 180}, {"molecule": "CCOC(=O)C1=C(C)Nc2n[nH]cc2C1c1cccc2nonc12", "note": "(stereo not drawn) [Example 113, Ethyl 4-(2,1,3-benzoxadiazol-4-yl)-4,7-dihydro-6-methyl-2H-pyrazolo[3,4-b]pyridine-5-carboxylate]", "melting point": 228}, {"molecule": "CCOC(=O)C1=C(c2ccccc2)Nc2n[nH]cc2C1c1cccc2nonc12", "note": "(stereo not drawn) [Example 114, Ethyl 4-(2,1,3-benzoxadiazol-4-yl)-4,7-dihydro-6-phenyl-2H-pyrazolo[3,4-b]pyridine-5-carboxylate]", "melting point": 190}, {"molecule": "CCCC1=C([N+](=O)[O-])C(c2ccccc2Br)c2c[nH]nc2N1", "note": "(stereo not drawn) [Example 118, 4-(2-Bromophenyl)-4,7-dihydro-5-nitro-6-propyl-2H-pyrazolo[3,4-b]pyridine]", "melting point": 226}, {"molecule": "CCCC1=C([N+](=O)[O-])C(c2ccccc2OC)c2c[nH]nc2N1", "note": "(stereo not drawn) [Example 119, 4,7-Dihydro-4-(2-methoxyphenyl)-5-nitro-6-propyl-2H-pyrazolo[3,4-b]pyridine]", "melting point": 223}, {"molecule": "CCCC1=C([N+](=O)[O-])C(c2ccccc2SC)c2c[nH]nc2N1", "note": "(stereo not drawn) [Example 120, 4,7-Dihydro-4-(2-methylthiophenyl)-5-nitro-6-propyl-2H-pyrazolo[3,4-b]pyridine]", "melting point": 211}, {"molecule": "CCCC1=C([N+](=O)[O-])C(c2cccc(Cl)c2Cl)c2c[nH]nc2N1", "note": "(stereo not drawn) [Example 122, 4-(2,3-Dichlorophenyl)-4,7-dihydro-5-nitro-6-propyl-2H-pyrazolo[3,4-b]pyridine]", "melting point": 239}, {"molecule": "CCCC1=C([N+](=O)[O-])C(c2cccc3ccccc23)c2c[nH]nc2N1", "note": "(stereo not drawn) [Example 123, 4,7-Dihydro-4-(naphthalen-1-yl)-5-nitro-6-propyl-2H-pyrazolo[3,4-b]pyridine]", "melting point": 226}, {"molecule": "CCCC1=C([N+](=O)[O-])C(c2cccc3c2OCCC3)c2c[nH]nc2N1", "note": "(stereo not drawn) [Example 124, 4,7-Dihydro-4-(3,4-dihydro-2H-benzopyran-8-yl)-5-nitro-6-propyl-2H-pyrazolo[3,4-b]pyridine]", "melting point": 234}, {"molecule": "CC1=C([N+](=O)[O-])C(c2cccc(Cl)c2Cl)c2c[nH]nc2N1", "note": "(stereo not drawn) [Example 125, 4-(2,3-Dichlorophenyl)-4,7-dihydro-6-methyl-5-nitro-2H-pyrazolo[3,4-b]pyridine]", "melting point": "> 270"}, {"molecule": "CCC1=C([N+](=O)[O-])C(c2cccc(Cl)c2Cl)c2c[nH]nc2N1", "note": "(stereo not drawn) [Example 126, 4-(2,3-Dichlorophenyl)-6-ethyl-4,7-dihydro-5-nitro-2H-pyrazolo[3,4-b]pyridine]", "melting point": 250}, {"molecule": "CCCCC1=C([N+](=O)[O-])C(c2cccc(Cl)c2Cl)c2c[nH]nc2N1", "note": "(stereo not drawn) [Example 127, 6-Butyl-4-(2,3-dichlorophenyl)-4,7-dihydro-5-nitro-2H-pyrazolo[3,4-b]pyridine]", "melting point": 220}, {"molecule": "CCCC1=C(C#N)C(c2ccccc2Br)c2c[nH]nc2N1", "note": "(stereo not drawn) [Example 128, 4-(2-Bromophenyl)-5-cyano-4,7-dihydro-6-propyl-2H-pyrazolo[3,4-b]pyridine]", "melting point": 237}, {"molecule": "CCCC1=C(C#N)C(c2ccccc2OC)c2c[nH]nc2N1", "note": "(stereo not drawn) [Example 129, 5-Cyano-4,7-dihydro-4-(2-methoxyphenyl)-6-propyl-2H-pyrazolo[3,4-b]pyridine]", "melting point": 203}, {"molecule": "CCCC1=C(C#N)C(c2ccccc2SC)c2c[nH]nc2N1", "note": "(stereo not drawn) [Example 130, 5-Cyano-4,7-dihydro-4-(2-methylthiophenyl)-6-propyl-2H-pyrazolo[3,4-b]pyridine]", "melting point": 216}, {"molecule": "CCCC1=C(C#N)C(c2ccccc2C)c2c[nH]nc2N1", "note": "(stereo not drawn) [Example 131, 5-Cyano-4,7-dihydro-4-(2-methylphenyl)-6-propyl-2H-pyrazolo[3,4-b]pyridine]", "melting point": 230}, {"molecule": "CCCC1=C(C#N)C(c2ccccc2[N+](=O)[O-])c2c[nH]nc2N1", "note": "(stereo not drawn) [Example 132, 5-Cyano-4,7-dihydro-4-(2-nitrophenyl)-6-propyl-2H-pyrazolo[3,4-b]pyridine]", "melting point": 216}, {"molecule": "CCCC1=C(C#N)C(c2ccccc2C#N)c2c[nH]nc2N1", "note": "(stereo not drawn) [Example 133, 5-Cyano-4-(2-cyanophenyl)-4,7-dihydro-6-propyl-2H-pyrazolo[3,4-b]pyridine]", "melting point": 218}, {"molecule": "CCCC1=C(C#N)C(c2cccc(Cl)c2Cl)c2c[nH]nc2N1", "note": "(stereo not drawn) [Example 134, 5-Cyano-4-(2,3-dichlorophenyl)-4,7-dihydro-6-propyl-2H-pyrazolo[3,4-b]pyridine]", "melting point": 242}, {"molecule": "CCCC1=C(C#N)C(c2cccc3ccccc23)c2c[nH]nc2N1", "note": "(stereo not drawn) [Example 135, 5-Cyano-4,7-dihydro-4-(naphthalen-1-yl)-6-propyl-2H-pyrazolo[3,4-b]pyridine]", "melting point": 263}, {"molecule": "CCCC1=C(C#N)C(c2cccc3c2OCCC3)c2c[nH]nc2N1", "note": "(stereo not drawn) [Example 136, 5-Cyano-4-(3,4-dihydro-2H-benzopyran-8-yl)-4,7-dihydro-6-propyl-2H-pyrazolo[3,4-b]pyridine]", "melting point": 230}, {"molecule": "CCCC1=C(C#N)C(c2cccc3nonc23)c2c[nH]nc2N1", "note": "(stereo not drawn) [Example 137, 4-(2,1,3-Benzoxadiazol-4-yl)-5-cyano-4,7-dihydro-6-propyl-2H-pyrazolo[3,4-b]pyridine]", "melting point": 194}, {"molecule": "CCCC1=C(C#N)C(c2cccc3nsnc23)c2c[nH]nc2N1", "note": "(stereo not drawn) [Example 138, 4-(2,1,3-Benzothiadiazol-4-yl)-5-cyano-4,7-dihydro-6-propyl-2H-pyrazolo[3,4-b]pyridine]", "melting point": 195}, {"molecule": "CCCC1=C(C#N)C(c2cccc3oc(C)nc23)c2c[nH]nc2N1", "note": "(stereo not drawn) [Example 139, 5-Cyano-4,7-dihydro-4-(2-methylbenzoxazol-4-yl)-6-propyl-2H-pyrazolo[3,4-b]pyridine]", "melting point": 208}, {"molecule": "CCCC1=C(C#N)[C@H](c2cccc3nonc23)c2c[nH]nc2N1", "note": "[Example 140, R(−) 4-(2,1,3-Benzoxadiazol-4-yl)-5-cyano-4,7-dihydro-6-propyl-2H-pyrazolo[3,4-b]pyridine]", "melting point": 170}, {"molecule": "N#CC1=C(c2ccccc2)Nc2n[nH]cc2C1c1ccccc1Cl", "note": "(stereo not drawn) [Example 142, 4-(2-Chlorophenyl)-5-cyano-4,7-dihydro-6-phenyl-2H-pyrazolo[3,4-b]pyridine]", "melting point": 158}, {"molecule": "CSc1ccccc1C1C(C#N)=C(c2ccccc2)Nc2n[nH]cc21", "note": "(stereo not drawn) [Example 143, 5-Cyano-4,7-dihydro-4-(2-methylthiophenyl)-6-phenyl-2H-pyrazolo[3,4-b]pyridine]", "melting point": 146}, {"molecule": "N#CC1=C(c2ccccc2)Nc2n[nH]cc2C1c1ccccc1C#N", "note": "(stereo not drawn) [Example 144, 5-Cyano-4-(2-cyanophenyl)-4,7-dihydro-6-phenyl-2H-pyrazolo[3,4-b]pyridine]", "melting point": 148}, {"molecule": "N#CC1=C(c2ccccc2)Nc2n[nH]cc2C1c1cccc(Cl)c1Cl", "note": "(stereo not drawn) [Example 145, 5-Cyano-4-(2,3-dichlorophenyl)-4,7-dihydro-6-phenyl-2H-pyrazolo[3,4-b]pyridine]", "melting point": 162}]}]}
